These results are taken from patent US20120329879A1, “BETA-ADRENERGIC RECEPTOR AGONISTS AND USES THEREOF” (THE UNIVERSITY OF TENNESSEE RESEARCH FOUNDATION, priority 2010, published 2012).

One data set deals with Rat Müller cells (rMC-1). Put plainly: TNFalpha and cleaved caspase 3 ELISA in Müller cells cultured in high glucose. The class given is cell-based. On the procedure: (§1) Human retinal endothelial cells (HREC) were purchased from Cell Systems (Kirkland, Wash.) and grown in either basal (5 mM glucose) or growth (25 mM glucose) media. Both media is supplemented with 10% FBS and antibiotics. The day prior to experiments, cells are serum-starved for 18-24 hours. Rat Müller cells (rMC-1) were grown in DMEM medium with 5 mM glucose or 25 mM glucose. Media was supplemented with 10% FBS and antibiotics. Cells were serum starved prior to all experiments for 18-24 hours.
(§2) Human retinal endothelial cells (HREC) and rat Muller cells (rMC-1) in both glucose conditions were treated with Compound 2 at doses of 10 nM, 50 nM, 100 nM, 1 μM, and 10 μM of Compound 2. Cells of each type were grown in medium containing L-glucose to control for changes in osmolarity. 10 μM isoproterenol was also used for each condition as a positive control. Müller cells were treated for 1 hour and 24 hours, while HREC were treated for 30 and 60 minutes.
(§3) Following treatment, cells were collected into lysis buffer containing protease and phosphatase inhibitors. ELISA analyses for TNFalpha, cleaved caspase 3, and PKA were done according to manufacturers instructions. Data is compared against non-treated cells and cells at the various doses. A Kruskal-Wallis test is done, with a Dunn's test for secondary analyses. […] The dose that decreases TNFalpha and caspase 3 levels also increases PKA activity.

In data set [1] the test system is Human retinal endothelial cells (HREC). The data set can be described thus: TNFalpha and cleaved caspase 3 ELISA in retinal endothelial cells cultured in high glucose. The class given is cell-based. On the procedure: as §1, §2, §3
A general note: In an ELISA, binding on a coated surface is turned into a signal by an enzyme label.

The nature of data set [2]: Body weight, blood glucose, blood pressure and intraocular pressure in streptozotocin diabetic rats on eye drop therapy. The note with it: rats, 50 mM topical dose of isoproterenol. The class given is in vivo, rat.
Method: Male Lewis rats purchased from Charles River were used. Diabetic rats received a single injection of 60 mg/kg streptozotocin (Fisher, Pittsburgh, Pa.). […] All rats were weighed weekly and only rats with non-fasting blood glucose levels >250 mg/dl were considered diabetic. The designation of diabetic was made at the beginning of the experiments. Glucose was measured bimonthly. No insulin was administered to the rats at any time. To determine whether topical application of Compound 2 could reach the retina and elicit response, dose and time course studies were performed. For those studies, animals were made diabetic for 2 months using STZ. For 4 days, rats received a variety of doses of either Compound 2 (1 mM to 20 mM) or PBS once or twice each day. After the 4 days of eye drop treatment to both eyes, the diabetic and control animals were euthanized. […] After determining the optimal dose and time course for eye drop treatment for Compound 2, three groups of rats were used for this part of the study (control, diabetic (Diabetic), and diabetic+eye drop (Diab+2). Within 1 week of STZ-injection, 12 rats were put onto eye drop therapy. Rats on the eye drop therapy received a daily application of 4 drops of 1 mM Compound 2 to each eye. To verify that insulin levels were lost in the diabetic animals, insulin ELISA (Rat/Mouse Insulin ELISA kit, Linco, St. Charles, Mo.) was done on blood sampled from all rats at 2 months of age. Rats were sacrificed at 2 or 8 months of age. […] Analyses on the rats were done for acute changes (8 weeks of diabetes, 45 rats) and chronic changes (8 months of diabetes, 45 rats). […] Each month, all rats were tested for visual function: electroretinogram (ERG) and live retinal imaging were performed using Optical Coherence Topography (OCT). […] While the animals were asleep for ERG analyses, blood pressure and pulse were monitored to detect potential negative cardiovascular events.
For the next data set, the system named is retina. The note with it: given systemically to rodents; cited from earlier work.
[3] abbreviates: Müller cells in high glucose, 50 nM, vs non-treated.
Where [4] appears, read: REC in high glucose, 50 nM, vs non-treated.
The mark [5] stands for this setting: Müller cells, 10 μM isoproterenol.

The structures appear in SMILES notation. Bounds are passed on as bounds.

`COc1cc(CCNC[C@H](O)c2ccc(O)c(O)c2)cc(OC)c1OC.Cl` (single isomer, unassigned) [R-isomer of Compound 2]: the “TNFalpha concentration and cleaved caspase 3: comparison of isomers” value with Rat Müller cells (rMC-1) (Muller cells, 50 nM, 1 hour or 24 hours) was “superior to the S-isomer of Compound 2 and racemic Compound 2”; in data set [1] (retinal endothelial cells, 50 nM, 1 hour or 24 hours), “superior to the S-isomer of Compound 2 and racemic Compound 2”.
For `COc1cc(CCNC[C@H](O)c2ccc(O)c(O)c2)cc(OC)c1OC` [Compound 3, 4-[1-hydroxy-2-(1-ethylamino-3-,4-,5-trimethoxyphenyl)ethyl]benzene-1,2-diol], the figures for the “TNFalpha levels, in words” value (in the data set on Rat Müller cells (rMC-1) (setting [3]); in data set [1] (setting [4])) were “significantly reduced TNFalpha within 1 hour” and “reduced”, respectively. The “cleaved caspase 3 levels, in words” value (with Rat Müller cells (rMC-1) (setting [3]); in data set [1] (setting [4])) was “reduced the cleavage of caspase 3” in each case.
For `COc1cc(CCNC[C@H](O)c2cc(O)cc(O)c2)cc(OC)c1OC.Cl` [Compound 4, 5-(1-hydroxy-2-[2-(3,4,5-trimethosy-phenyl)-ethylamino]-ethyl)-benzene-1,3-diol hydrochloride], in the data set on Rat Müller cells (rMC-1) (Muller cells, 50 nM), the “beta-2-adrenergic receptor activity (ELISA data)” value is reported as “has more beta-2-adrenergic receptor activity”; the “effectiveness and speed compared with Compound 2” value is “more effective and works faster than Compound 2”. Besides, in the data set with Rat Müller cells (rMC-1) (setting [3]), the “TNFalpha levels, in words” value was “reduce TNFalpha levels”; the “cleaved caspase 3 levels, in words” value was “reduce TNFalpha levels and the cleavage of caspase 3”. Moreover, the “beta-2-adrenergic receptor activity (ELISA data)” value in data set [1] (REC cells, 50 nM) is recorded as “has more beta-2-adrenergic receptor activity”. Further, in data set [1] (setting [4]), the “TNFalpha levels, in words” value is reported as “reduce TNFalpha levels”; the “cleaved caspase 3 levels, in words” value is “reduce TNFalpha levels and the cleavage of caspase 3”. Besides, the “time to activate response compared with Compound 2” value in data set [1] (retinal endothelial cells, 50 nM) is recorded as “does take longer to activate response”.
As to `CC(C)NCC(O)c1ccc(O)c(O)c1` (centres unmarked) [isoproterenol, 4-[1-hydroxy-2-(isopropylamino)ethyl]benzene-1,2-diol, reference compound], the “negative cardiovascular events (blood pressure and pulse)” value in data set [2] is recorded as “these events have not been observed”. Further, the “concentration required for the same response (reduction of cleaved caspase 3 and TNFalpha)” value in the data set on Rat Müller cells (rMC-1) (Müller cells in high glucose, compared with 50 nM Compound 2) amounted to 10 µM. Moreover, in the data set on Rat Müller cells (rMC-1) (Müller cells in hyperglycemic conditions, isoproterenol, concentration not given), the “cleaved caspase 3 levels, in words” value is “can decrease cleaved caspase 3 levels”. Besides, in the data set with Rat Müller cells (rMC-1) (setting [5]), the “time for blockade of apoptosis” value was 24 h and the “time for inhibition of TNFalpha activity” value was not above 1 h. Also, in data set [1] (REC in hyperglycemic conditions, isoproterenol, concentration not given), the “cleaved caspase 3 levels, in words” value is recorded as “can decrease cleaved caspase 3 levels”. The “TNFalpha reduction, in words” value in data set [1] (retinal endothelial cells, 10 μM in vitro) is “did not significantly reduce TNFalpha”.
Take `CC(C)NCC(O)COc1cccc2ccccc12` (centres unmarked) [propranolol]: in the data set on retina, the “electrical activity in the retina” value is “produced significant deficits in the electrical activity in the retina” and the “growth factors that may promote neovascularization” value is given as “activated growth factors that may promote neovascularization”.
